# Measured values taken from PMC6755732, “Structural, Biochemical, and In Vivo Characterization of MtrR-Mediated Resistance to Innate Antimicrobials by the Human Pathogen Neisseria gonorrhoeae” (Journal of Bacteriology, 2019).
# Where two headings read alike, the source gives them in different places.
# What was measured:
# [1] = target: T1, MtrR (Neisseria gonorrhoeae, UniProt P39897); test: Isothermal titration calorimetry, wild-type MtrR with bile salts; assay type: binding; settings: ITC, 25°C, 20 μM MtrR in cell, 250 μM ligand in syringe
# T1 construct: A codon optimized gene of MtrR was synthesized by GenScript and cloned into the; hexahistidine tag with TEV protease site (N, cleaved yes); made in house
# Method: Purified MtrR was dialyzed extensively against buffer containing 20 mM Tris [pH 8.0], 200 mM NaCl, 10% glycerol, and 1 mM TCEP overnight at 4°C. The stock solutions and the necessary dilutions of the bile salts were prepared using this dialysis buffer. Titrations with 20 μM MtrR in the cell and 250 μM ligand in the syringe were performed using a VP-ITC microcalorimeter (Microcal Inc.). All measurements were conducted at 25°C with a stirring speed of 200 rpm. After subtraction of germane blank data, the titration data were analyzed using the program ORIGIN 5.0.
# Protein purification for Isothermal Titration Calorimetry experiments and mutant […]
# A codon optimized gene of MtrR was synthesized by GenScript and cloned into the pMCSG7 vector in- frame with the N-terminal Hexa- histidine tag and tobacco etch virus (TEV) protease cleavage site. This construct was used as the template for site- directed mutagenesis and to generate wild- type data in supplemental f igures 5-6 and Isothermal Titration Calorimetry data. This protein was overexpressed and purified as described in the “Materials and Methods” of the document, except the he xa -histidine tag MtrR was cleaved by TEV protease following NiNTA affinity chromatography. Cleaved MtrR was purified from tagged MtrR and cleaved hexa- histidine tag by Ni- NTA aff inity chromatography and then further purified by size exclusion chromatography (S200).
# [2] = target: T2, MtrR-DNA complex (Neisseria gonorrhoeae, UniProt P39897); assay type: biochemical; settings: EMSA, wild-type MtrR, mtrC promoter oligoduplex
# T2 construct: nearly all 210 residues of each protomer observed, with the exception of residues 1 through 7; hexahistidine tag (thrombin-cleavable) (cleaved yes); made in house
# Method: To test the hypothesis that these bile salts directly bind to MtrR and potentially derepress gene expression by interfering with the DNA binding activity of MtrR, MtrR-mtrC promoter interactions were tested in the presence and absence of different concentrations of several bile salts. […] It is important to note that this is a competition assay that, due to its experimental design, requires the use of 3 μM DNA and 4 to 10 μM MtrR dimer. Consequently, this means that ∼99.9% of all DNA is MtrR bound.
# Complementary oligodeoxynucleotides containing the MtrR binding site from the mtrC promoter (top strand, 5′-[sequence]-3′; an unusual pseudo-direct repeat is underlined) were annealed by heating an equimolar mixture of the top and bottom strands at 95°C for 5 min, followed by slow cooling to room temperature. Binding reactions were carried out in 20-μl volumes of binding buffer (20 mM Tris [pH 8.0], 200 mM NaCl, 10% glycerol, and 1 mM TCEP) containing 1 μg oligoduplex, 1 μg poly(dI-dC), and 4 to 10 μg MtrR. After a 20-minute incubation at room temperature, the preformed complex was incubated with or without various concentrations of selected bile salts at room temperature for an additional 10 min. […] The gels were stained with ethidium bromide and visualized and analyzed with an Alpha Innotech gel documentation instrument. The intensities of free DNA were measured with ImageJII ([61], [62]).
# [3] = test system: mtrCp-lacZ in JF1 (FA19 ΔmtrR); assay type: cell-based, Neisseria gonorrhoeae
# Excerpt: (§1) To determine if sublethal concentrations of bile salts could relieve MtrR-mediated repression of mtrC (and, by inference, the mtrCDE operon), a translational fusion of the promoter region of mtrC to lacZ was used. This fusion system was made in the wild-type (FA19) background ([41]) and cloned into mtrR deletion mutant strain JF1. Using the mtrCp-lacZ fusion, the β-galactosidase activity of the strains grown in the presence or absence of the bile salt chenodeoxycholate, taurodeoxycholate, or glycocholate was measured. The β-galactosidase levels were determined from strains grown overnight on GC agar supplemented with the bile salt at concentrations 4-fold below their specific MICs to ensure that the concentration of each bile salt was in the same biological range (the bile salt concentrations are listed in Table 2).
# N. gonorrhoeae strains FA19 (wild type) and JF1 (FA19 ΔmtrR) containing a translational mtrCp-lacZ fusion with the proAB locus were used to assess the ability of bile salts to induce mtrC expression; the construction of these strains has been described previously ([41]). The MIC of bile salts for each strain used in the β-galactosidase assay was determined using a 2-fold agar dilution method ([32]). […]
# [4] = target: T3, MtrR-mtrCDE promoter (Neisseria gonorrhoeae, UniProt P39897); assay type: biochemical; settings: versus no bile salt
# T3 construct: nearly all 210 residues of each protomer observed, with the exception of residues 1 through 7; hexahistidine tag (thrombin-cleavable) (cleaved yes); made in house
# Method: Thus, to rule out any effect of alkaline pH on MtrR-DNA interactions, we buffered the CAPS used in the FP assay to pH 8.0 before testing its effect on DNA binding.
# Fluorescence polarization-based DNA binding experiments were performed with a Panvera Beacon 2000 fluorescence polarization system (Invitrogen) utilizing 5′-fluorescein-labeled DNA. Polarization (P) of such 5′-labeled DNA increases as a function of protein binding, and equilibrium dissociation constants are determined by curve fitting the values of millipolarization (P × 10^−3) units against the protein concentration. To determine the effects of various ligands on MtrR-DNA binding, 1 nM 5′-fluoresceinated oligodeoxynucleotide duplexes containing the mtrC operator site in 1 ml binding buffer (20 mM Tris HCl [pH 8.0], 100 mM NaCl, and 2.5% glycerol) were titrated against increasing concentrations of purified MtrR in the presence or absence of the indicated concentrations of bile salt, and the resulting changes in polarization were measured. All the samples were excited at 490 nm, and their polarized emissions were measured at 530 nm. All the data were plotted using Kaleidagraph (Synergy Software) and Prism (GraphPad Software), and the resulting plots were fitted to the following equation: P = {(Pbound − Pfree)[protein]/(KD + [protein])} + Pfree, where P is the polarization measured at a given protein concentration, Pfree is the initial polarization of the free ligand, Pbound is the maximum polarization of specifically bound ligand, KD is the equilibrium dissociation constant, and [protein] is the protein concentration. Nonlinear least-squares analysis was used to determine Pbound, and Kd. The reported binding constants are the average values from at least three independent experimental measurements.
# [5] = test system: mtrCp-lacZ in FA19 (wild type); test: β-Galactosidase assay of mtrCp-lacZ fusion, strain FA19; assay type: cell-based, Neisseria gonorrhoeae
# Excerpt: as §1
# N. gonorrhoeae strains FA19 (wild type) and JF1 (FA19 ΔmtrR) containing a translational mtrCp-lacZ fusion with the proAB locus were used to assess the ability of bile salts to induce mtrC expression; the construction of these strains has been described previously ([41]). The MIC of bile salts for each strain used in the β-galactosidase assay was determined using a 2-fold agar dilution method ([32]). Gonococci were grown overnight on GC agar (Difco Laboratories) supplemented with a bile salt (glycocholate, chenodeoxycholate, or taurodeoxycholate) at concentrations that were 4-fold below the MIC. After overnight growth at 37°C under 3.8% (vol/vol) CO2, the bacteria were scraped from the agar plate, resuspended in 1 ml phosphate-buffered saline (pH 7.4), and lysed by freeze-thawing three times, after which the cell debris was pelleted by centrifugation. The lysate was then used to determine β-galactosidase levels as described previously ([63]). All experiments were performed in triplicate with at least three biological replicates conducted on different days.
# T3 sequence (P39897 whole entry): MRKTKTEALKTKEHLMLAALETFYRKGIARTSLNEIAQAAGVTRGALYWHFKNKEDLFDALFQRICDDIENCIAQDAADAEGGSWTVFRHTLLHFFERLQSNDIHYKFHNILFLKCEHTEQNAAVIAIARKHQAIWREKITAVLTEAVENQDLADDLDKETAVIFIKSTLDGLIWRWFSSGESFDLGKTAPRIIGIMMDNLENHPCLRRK
# T2 sequence (P39897 whole entry, one chain of several): as the sequence (P39897 whole entry) above
# T1 sequence (P39897 whole entry): as above
structure (smiles),measurement,setting,value
"C[C@H](CCC(=O)NCC(=O)O)[C@H]1CC[C@H]2[C@@H]3[C@H](O)C[C@@H]4C[C@H](O)CC[C@]4(C)[C@H]3C[C@H](O)[C@]12C [Glycocholate, glycocholate]",Kd of bile salt binding to WT MtrR,[1],no measurable binding
same,Concentration that disrupts the preformed MtrR-DNA complex,[2],> 40 mM
same,Fold increase of mtrCp-lacZ activity,[3],2.11 (0.96)
same,Fold increase in Kd,[4]; 1 mM bile salt,1.2
same,Fold increase in Kd,"[4]; 1 mM bile salt, listed as glycocholate",no effect
same,Fold increase in Kd,[4]; 5 mM bile salt,5
same,Fold increase in Kd,[4]; 10 mM bile salt,6
same,MtrR-dependent derepression of the mtrC promoter,"[5]; FA19 compared with ΔmtrR strain JF1, sublethal bile salt",failed to exhibit MtrR-dependent derepression
same,Fold increase of mtrCp-lacZ activity,"[5]; strain FA19, grown on GC agar with bile salt 4-fold below MIC versus normal agar, mM concentration in parentheses in the cell",1.43 (0.48)
